Results on 1 compound are retold here after patent US20110159515A1, “COMPOSITIONS AND METHODS FOR THE RAPID GROWTH AND DETECTION OF MICROORGANISMS” (SOLUS SCIENTIFIC SOLUTIONS LIMITED, priority 2008, published 2011).

One assay concerns L. innocua. The assay is described as follows: Direct binding Salmonella assay (chemiluminescence immunosorbent). Particulars: 10^6 L. innocua. The method, then: The sample was heated to 100° C. for 5 minutes and allowed to cool. One hundred microlitres of each test sample was added directly to a well of a solid white 96 well high binding microtitre plate (Greiner Bio One) and incubated at 37° C. for 30 minutes. During incubation, the lipid A portion of the LPS binds to the surface of the plate via non-covalent hydrophobic interactions (FIG. 1a (1), FIG. 1b(1)).
The final concentration of antibody per well was 50 ng. The plate-bound sample (Salmonella LPS/core oligosaccharide) and antibody were incubated in the coated wells for 30 minutes as 37° C. Following incubation, plates were washed three times in wash buffer and pat dried prior to detection (FIG. 1a(2), FIG. 1b(2)).
When the anti-Salmonella is directly labelled with acridinium ester, plates were placed into a luminometer. 30 μl of trigger solution A and 60 μl of trigger solution B was added to each well of the microtitre plate to initiate light output from conjugated acridinium ester (FIG. 1a(3)). The luminometer settings were as follows:
When the anti-Salmonella antibody is not labelled, a second binding member, a goat anti-mouse IgG2b conjugate is used. Post column IgG2b was diluted 1:100 in a diluent comprising 3% (w/v) non-fat milk powder and 0.05% (v/v) Tween 20 and 100 ul of this solution was added to each well of the plate (FIG. 1b(3)). Following incubation at 37° C. for 60 minutes the plate was washed four times in wash buffer, dried and read as above (FIG. 1b(4)).
Monoclonal antibody (1:100 dilution) was incubated with either Salmonella or Listeria to determine optimum incubation times:
Monoclonal antibody (1:200 dilution) was incubated with either Salmonella or Listeria to determine optimum incubation times: […]

In the next assay the test system is S. aberdeen. The assay is described as follows: Direct binding Salmonella assay on food cultures. The following applies: white plate, Lucy 1. As for the experimental part:
25 g of a food sample were added to 225 ml culture medium according to the first aspect of the invention. Alternatively a surface swab may be taken from a 10×10 cm area on a carcass and cultured in 2-5 ml culture medium according to the first aspect of the invention. Specifically the culture medium comprised 1% peptone, 8 g/L sodium tetrathionate and 0.15 mg/L brilliant green. […]
The sample was heated to 100° C. for 5 minutes and allowed to cool. One hundred microlitres of each test sample was added directly to a well of a solid white 96 well high binding microtitre plate (Greiner Bio One) and incubated at 37° C. for 30 minutes. During incubation, the lipid A portion of the LPS binds to the surface of the plate via non-covalent hydrophobic interactions (FIG. 1a (1), FIG. 1b(1)). Following incubation the plate was emptied and the wells washed three times with a wash buffer comprising 0.01M sodium phosphate buffer, pH 7.4, containing 0.147M NaCl and 0.05 (v/v) Tween 20.
White Plate read on Lucy 1 luminometer

With `CCCCCCCCCCCCOS(=O)(=O)[O-].[Na+]` [SDS, sodium dodecyl sulphate], the “signal, release and detection of core oligosaccharide” value stood at 7863 relative light units in the assay on L. innocua (0.1% SDS) and 8051 relative light units with L. innocua (0.5% SDS). The “signal, food culture” value in the assay on S. aberdeen (0.1% SDS, +ve Chicken (10 C.F.U. S. aberdeen, 18 hours)) is 131,488 ± 15,357; in the assay with S. aberdeen (0.1% SDS, +ve Drinking Chocolate (10 C.F.U. S. aberdeen, 18 hours)) it was 45,626 ± 3204; with S. aberdeen (0.1% SDS, +ve Mayonnaise (10 C.F.U. S. aberdeen, 18 hours)), 746,670 ± 86,449; with S. aberdeen (0.1% SDS, −ve Chicken), 3426 ± 316; in the assay on S. aberdeen (0.1% SDS, −ve Drinking Chocolate), 1315 ± 63; in the assay on S. aberdeen (0.1% SDS, −ve Mayonnaise) it was 4180 ± 610. Besides, the “signal, food culture” value in the assay on S. aberdeen (0.5% SDS, +ve Chicken (10 C.F.U. S. aberdeen, 18 hours)) is reported as 36,770 ± 2,020; with S. aberdeen (0.5% SDS, +ve Drinking Chocolate (10 C.F.U. S. aberdeen, 18 hours)) it was 110,756 ± 5737^; in the assay on S. aberdeen (0.5% SDS, +ve Mayonnaise (10 C.F.U. S. aberdeen, 18 hours)), 387,924 ± 106,504; in the assay on S. aberdeen (0.5% SDS, −ve Chicken) it was 4494 ± 904; in the assay on S. aberdeen (0.5% SDS, −ve Drinking Chocolate), 3266 ± 142; with S. aberdeen (0.5% SDS, −ve Mayonnaise) it was 3260 ± 733.
